Test systems include SK-MEL-28; Malme-3M; U-251; SF-539; SN12C; HCC 2998; NCI-H226; SK-MEL-2; SNB-19; ACHN; UACC-62; SF-268; UO-31; HCT-116; COLO 205; SK-MEL-5.
Common to all, as to assay: NCI-60 cell line screen, 48 h

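Following 48 hours of exposure in 96-well plates, responses at five concentrations were used to interpolate endpoints linearly. At the GI50, growth is halved.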 Activity calls are given as the source filed them. Cut-off read from the data, not from the text of the source: active = GI50 up to about 1.1 µM and inactive = higher.

Turning to `C=CC(=O)NCNC(=O)C=C`, the GI50 in the assay with SK-MEL-28, in the assay with Malme-3M, with U-251, with SF-539, with SN12C and in the assay on HCC 2998 was > 100 µM (inactive) in each case. Also, the GI50 with NCI-H226, in the assay with SK-MEL-2, in the assay on SNB-19, with ACHN, in the assay with UACC-62 and in the assay with SF-268 was > 100 µM (inactive) each time. For the same molecule, the GI50 with UO-31, in the assay on HCT-116, with COLO 205 and with SK-MEL-5 was > 100 µM (inactive) in each case.

Take `Cc1cc(Cl)ccc1NC(=O)C(=O)Cc1ccc([N+](=O)[O-])c([N+](=O)[O-])c1CC(=O)C(=O)Nc1ccc(Cl)cc1C`: the GI50 with SK-MEL-28 was > 100 µM (inactive); in the assay with Malme-3M it was > 100 µM (inactive); in the assay on U-251, > 100 µM (inactive); in the assay with SF-539, 35 µM (inactive); with SN12C, > 100 µM (inactive); in the assay with HCC 2998 it was > 100 µM (inactive). The GI50 in the assay with NCI-H226, in the assay with SK-MEL-2, with SNB-19, with ACHN, with UACC-62 and with SF-268 was > 100 µM (inactive) in each case. The GI50 in the assay on UO-31 is > 100 µM (inactive); with HCT-116 it was > 100 µM (inactive); in the assay on COLO 205 it was 61.1 µM (inactive); with SK-MEL-5, > 100 µM (inactive).

`Cn1c2c(c3ccccc31)CCN(CCN1CCN(c3ccccc3)CC1)C2=O`: the GI50 is > 100 µM (inactive) in the assay with SK-MEL-28; > 100 µM (inactive) in the assay on U-251; 41.3 µM (inactive) with SF-539; > 100 µM (inactive) in the assay on SN12C; > 100 µM (inactive) in the assay on ACHN; > 100 µM (inactive) in the assay on UACC-62. Further, the GI50 in the assay on SF-268 is > 100 µM (inactive); with UO-31, > 100 µM (inactive); with HCT-116 it was 58.1 µM (inactive); with COLO 205, > 100 µM (inactive); with SK-MEL-5 it was 61.1 µM (inactive).

For `CN1c2ccccc2N(C(=O)c2ccccc2)C(CC(=O)O)c2cccn21` (centres undefined), the GI50 in the assay with SK-MEL-28, with Malme-3M, in the assay with U-251, with SF-539, with SN12C and with HCC 2998 was > 100 µM (inactive) each time. The GI50 was > 100 µM (inactive) in the assay on SK-MEL-2; > 100 µM (inactive) with SNB-19; > 100 µM (inactive) with ACHN; 55.3 µM (inactive) in the assay on UACC-62; > 100 µM (inactive) in the assay with SF-268; > 100 µM (inactive) in the assay on UO-31. The GI50 in the assay on COLO 205 and in the assay on SK-MEL-5 was > 100 µM (inactive) in each case.

`C=C1CC(C/C=C(\C)CC2CC(=C)C(=O)O2)OC1=O` (centres undefined): the GI50 in the assay with SK-MEL-28, with Malme-3M, with U-251, with SF-539, in the assay on SN12C and with HCC 2998 was > 100 µM (inactive) in each case. The GI50 with SK-MEL-2, in the assay with SNB-19, in the assay with ACHN, in the assay on UACC-62, with SF-268 and with UO-31 was > 100 µM (inactive) throughout. In addition, the GI50 in the assay on HCT-116, in the assay on COLO 205 and in the assay with SK-MEL-5 was > 100 µM (inactive) throughout.

For the molecule `c1ccc(SC2CCSc3ccccc3C2Sc2ccccc2)cc1` (centres undefined), the GI50 is > 100 µM (inactive) in the assay with U-251; > 100 µM (inactive) in the assay with SF-539; > 100 µM (inactive) in the assay on SN12C; > 100 µM (inactive) in the assay with HCC 2998; > 100 µM (inactive) in the assay with NCI-H226; 94.4 µM (inactive) in the assay with SNB-19. In addition, the GI50 in the assay on ACHN was > 100 µM (inactive); in the assay on UACC-62 it was > 10 µM (inactive); in the assay on SF-268, > 100 µM (inactive); with UO-31, 6.9 µM (inactive); in the assay on HCT-116 it was 9.75 µM (inactive); in the assay on COLO 205, > 10 µM (inactive). In the assay on SK-MEL-5, the GI50 is 20.9 µM (inactive).

With `CC(C)(C)C[P+](C)(C)c1ccccc1`, the GI50 in the assay on SK-MEL-28, in the assay with Malme-3M, in the assay with U-251, in the assay on SF-539, in the assay on SN12C and in the assay with HCC 2998 was > 100 µM (inactive) each time. Besides, the GI50 in the assay with NCI-H226, in the assay on SK-MEL-2, in the assay on SNB-19, in the assay on ACHN, with UACC-62 and with SF-268 was > 100 µM (inactive) each time. Also, the GI50 in the assay on UO-31, in the assay on HCT-116, in the assay on COLO 205 and in the assay on SK-MEL-5 was > 100 µM (inactive) throughout.

Regarding `Cc1ccc(-n2c(=S)[nH]c3ccc(Br)cc3c2=O)cc1`, the GI50 in the assay with Malme-3M, in the assay on U-251, in the assay on SF-539, with SN12C, with HCC 2998 and in the assay with NCI-H226 was > 100 µM (inactive) in each case. Further, the GI50 in the assay with SK-MEL-2, in the assay with SNB-19, in the assay with ACHN, in the assay with SF-268, with UO-31 and in the assay with HCT-116 was > 100 µM (inactive) in each case. Moreover, in the assay on COLO 205, the GI50 is > 100 µM (inactive).

`CCOC(=O)C1=C(C(=O)OCC)C2(c3ccccc3)N(O1)c1ccccc1C2(C)C` (centres undefined): the GI50 is 44.6 µM (inactive) with SK-MEL-28; 52.2 µM (inactive) in the assay on Malme-3M; 34 µM (inactive) with U-251; 43.5 µM (inactive) in the assay on SF-539; 93.1 µM (inactive) with HCC 2998; 32.4 µM (inactive) with NCI-H226. Besides, the GI50 in the assay with SK-MEL-2 is 30.9 µM (inactive); in the assay on SNB-19, 38.3 µM (inactive); in the assay with UACC-62, 36.5 µM (inactive); in the assay with SF-268 it was 31.2 µM (inactive); in the assay with UO-31, 20.6 µM (inactive); in the assay on HCT-116, 32.4 µM (inactive). For the same molecule, the GI50 in the assay on COLO 205 was 51.5 µM (inactive); in the assay on SK-MEL-5, 56.4 µM (inactive).

Take `O=C1C2c3[nH]c4ccccc4c3C3CCC(c4ccccc4)CC3C2C(=O)N1c1ccccc1` (centres undefined): the GI50 in the assay on SK-MEL-28 was > 100 µM (inactive); in the assay on Malme-3M it was 36.8 µM (inactive); with U-251, > 100 µM (inactive); in the assay with SF-539 it was 97.7 µM (inactive); in the assay with SN12C, > 100 µM (inactive); with HCC 2998 it was > 100 µM (inactive). The GI50 in the assay on NCI-H226, in the assay with SNB-19, in the assay with ACHN, in the assay on UACC-62, with SF-268 and with UO-31 was > 100 µM (inactive) throughout. Besides, the GI50 with COLO 205 and in the assay on SK-MEL-5 was > 100 µM (inactive) each time.

Turning to `O=C(CCc1nnc(S)[nH]1)Nc1ccc(Cl)c(Cl)c1`, the GI50 with SK-MEL-28 is 71.6 µM (inactive); in the assay with Malme-3M, > 100 µM (inactive); with U-251, 99.5 µM (inactive); in the assay with SF-539, 62.5 µM (inactive); with SN12C, > 100 µM (inactive); in the assay with NCI-H226 it was > 100 µM (inactive). The GI50 in the assay on SK-MEL-2 is 6.18 µM (inactive); in the assay with SNB-19, > 100 µM (inactive); in the assay with ACHN, 12.6 µM (inactive); in the assay on UACC-62, 2.98 µM (inactive); in the assay on SF-268 it was 42.8 µM (inactive); in the assay on UO-31, 45.6 µM (inactive). For the same molecule, the GI50 with HCT-116 was 47 µM (inactive); in the assay on COLO 205 it was > 100 µM (inactive); in the assay with SK-MEL-5, 14.1 µM (inactive).

In the case of `CC[n+]1c(/C=C/c2ccc(N(CCCl)CCCl)cc2)ccc2cc(Br)ccc21`, the GI50 in the assay on SK-MEL-28 was 1.21 µM (inactive); with Malme-3M, 1.13 µM (inactive); with U-251 it was 1.31 µM (inactive); in the assay on SF-539, 1.55 µM (inactive); with SN12C, 2.48 µM (inactive); in the assay on HCC 2998, 1.38 µM (inactive). Besides, the GI50 with NCI-H226 is 1.82 µM (inactive); in the assay on SK-MEL-2, 0.382 µM (active); with SNB-19, 1.22 µM (inactive); in the assay on ACHN, 3.17 µM (inactive); with UACC-62, 1.19 µM (inactive); with SF-268, 1.61 µM (inactive). The GI50 in the assay on UO-31 was 15.1 µM (inactive); with HCT-116 it was 131 µM (inactive); in the assay with COLO 205 it was 69.7 µM (inactive); with SK-MEL-5, 1.1 µM (active).

Regarding `C=CC[P@]1(=O)O[C@H](c2ccccc2)C(C)N1C(C)C` (some centres undefined), the GI50 in the assay with SK-MEL-28, with Malme-3M, with U-251, in the assay with SF-539, with SN12C and with HCC 2998 was > 100 µM (inactive) each time. Moreover, the GI50 with NCI-H226, in the assay on SK-MEL-2, in the assay on SNB-19, in the assay on ACHN, in the assay on UACC-62 and with SF-268 was > 100 µM (inactive) throughout. In addition, the GI50 in the assay on UO-31, in the assay with HCT-116, in the assay with COLO 205 and in the assay with SK-MEL-5 was > 100 µM (inactive) throughout.

These data come from ChEMBL document CHEMBL1201862, “PubChem BioAssay data set” (2004).
